Some results are limits rather than exact numbers.

The values below come from patent US20040142952A1, “Triazoloquinazoline and pyrazolotriazolopyrimidine derivatives, medicinal compositions, adenosine a3 receptor affinity agents, ocular tension lowering agents, preparations for preventing and treating glaucoma and method of lowering ocular tension” (priority 2001, published 2004).

Take `O=C(O)CCCc1nc2nncc-2c2nc(-c3ccc(Cl)cc3)[nH]n12` [Example 149, 4-[2-(4-chlorophenyl)pyrazolo[4,3-e]-1,2,4-triazolo[1,5-c]pyrimidin-5-yl]butyric acid]: the melting point fell in the range of 253.5 to 255.5 °C. The result for `Cc1ccc(-c2nc3c4cnnc-4nc(CCCC(=O)O)n3[nH]2)cc1` [Example 150, 4-[2-(4-methylphenyl)pyrazolo[4,3-e]-1,2,4-triazolo[1,5-c]pyrimidin-5-yl]butyric acid] reads 249 to 251 °C. With `CCCCc1nc2c(cnn2CC(=O)O)c2nc(-c3ccccc3)nn12` [Example 151, 2-(5-n-butyl-2-phenylpyrazolo[4,3-e]-1,2,4-triazolo[1,5-c]pyrimidin-7-yl)acetic acid], the melting point lay within 271 to 272.5 °C. The result for `CCCCc1nc2nn(CC(=O)O)cc2c2nc(-c3ccccc3)nn12` [Example 152, 2-(5-n-butyl-2-phenylpyrazolo[4,3-e]-1,2,4-triazolo[1,5-c]pyrimidin-8-yl)acetic acid] reads > 281 °C (dec.); that for `O=C(O)CCCc1nc2ccccc2c2nc(-c3ccccc3)nn12` [Example 153, 4-(2-phenyl-1,2,4-triazolo[1,5-c]quinazolin-5-yl)butyric acid], 211 to 211.5 °C. The result for `O=C(O)CCCc1nc2ccccc2c2nc(-c3ccc(Br)cc3)nn12` [Example 154, 4-[2-(4-bromophenyl)-1,2,4-triazolo[1,5-c]quinazolin-5-yl]butyric acid] reads 219 to 220 °C. The result for `O=C(O)CCCc1nc2ccccc2c2nc(-c3ccc(F)cc3)nn12` [Example 155, 4-[2-(4-fluorophenyl)-1,2,4-triazolo[1,5-c]quinazolin-5-yl]butyric acid] reads 225 to 226 °C; that for `O=C(O)CCCc1nc2ccccc2c2nc(-c3ccc(Cl)cc3)nn12` [Example 156, 4-[2-(4-chlorophenyl)-1,2,4-triazolo[1,5-c]quinazolin-5-yl]butyric acid], 227 to 228 °C. In turn, `CCCCCc1nc2ccccc2c2nc(-c3ccc(O)cc3)nn12` [Example 157, 2-(4-hydroxyphenyl)-5-n-pentyl-1,2,4-triazolo[1,5-c]quinazoline] had a melting point of 214 to 215 °C.

Broadly, the melting point is the temperature of the solid-liquid transition.
